Assay [1] deals with T1, Tyrosine-protein phosphatase non-receptor type 1 (Homo sapiens, UniProt P18031).
T1 sequence (P18031 whole entry): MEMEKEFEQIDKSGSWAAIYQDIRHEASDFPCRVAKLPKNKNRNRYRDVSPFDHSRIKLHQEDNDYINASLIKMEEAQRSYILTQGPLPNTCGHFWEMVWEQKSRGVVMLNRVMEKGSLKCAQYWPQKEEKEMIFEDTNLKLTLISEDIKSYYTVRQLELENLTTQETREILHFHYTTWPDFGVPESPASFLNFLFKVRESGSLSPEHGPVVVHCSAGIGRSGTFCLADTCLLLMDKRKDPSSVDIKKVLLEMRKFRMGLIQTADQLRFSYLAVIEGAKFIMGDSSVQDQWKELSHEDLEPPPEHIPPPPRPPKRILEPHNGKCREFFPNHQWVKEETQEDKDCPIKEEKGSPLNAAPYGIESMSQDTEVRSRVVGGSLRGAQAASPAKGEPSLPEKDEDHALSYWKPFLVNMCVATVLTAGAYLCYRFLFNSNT
Briefly: Inhibition of GST-tagged PTP1B.

In assay [2] the target is T2, Tyrosine-protein phosphatase non-receptor type 1 (Homo sapiens) (UniProt P18031).
T2 sequence (whole entry): T1 sequence (P18031 whole entry)
As to the kind of experiment: Inhibition of GST-tagged PTP1B at 100 ug/mL.

The target of assay [3] is Receptor-type tyrosine-protein phosphatase F (Homo sapiens) (UniProt P10586). As to the kind of experiment: Inhibition of GST-tagged PTP LAR at 100 ug/mL.
Sequence of Receptor-type tyrosine-protein phosphatase F (Homo sapiens) (P10586 whole entry): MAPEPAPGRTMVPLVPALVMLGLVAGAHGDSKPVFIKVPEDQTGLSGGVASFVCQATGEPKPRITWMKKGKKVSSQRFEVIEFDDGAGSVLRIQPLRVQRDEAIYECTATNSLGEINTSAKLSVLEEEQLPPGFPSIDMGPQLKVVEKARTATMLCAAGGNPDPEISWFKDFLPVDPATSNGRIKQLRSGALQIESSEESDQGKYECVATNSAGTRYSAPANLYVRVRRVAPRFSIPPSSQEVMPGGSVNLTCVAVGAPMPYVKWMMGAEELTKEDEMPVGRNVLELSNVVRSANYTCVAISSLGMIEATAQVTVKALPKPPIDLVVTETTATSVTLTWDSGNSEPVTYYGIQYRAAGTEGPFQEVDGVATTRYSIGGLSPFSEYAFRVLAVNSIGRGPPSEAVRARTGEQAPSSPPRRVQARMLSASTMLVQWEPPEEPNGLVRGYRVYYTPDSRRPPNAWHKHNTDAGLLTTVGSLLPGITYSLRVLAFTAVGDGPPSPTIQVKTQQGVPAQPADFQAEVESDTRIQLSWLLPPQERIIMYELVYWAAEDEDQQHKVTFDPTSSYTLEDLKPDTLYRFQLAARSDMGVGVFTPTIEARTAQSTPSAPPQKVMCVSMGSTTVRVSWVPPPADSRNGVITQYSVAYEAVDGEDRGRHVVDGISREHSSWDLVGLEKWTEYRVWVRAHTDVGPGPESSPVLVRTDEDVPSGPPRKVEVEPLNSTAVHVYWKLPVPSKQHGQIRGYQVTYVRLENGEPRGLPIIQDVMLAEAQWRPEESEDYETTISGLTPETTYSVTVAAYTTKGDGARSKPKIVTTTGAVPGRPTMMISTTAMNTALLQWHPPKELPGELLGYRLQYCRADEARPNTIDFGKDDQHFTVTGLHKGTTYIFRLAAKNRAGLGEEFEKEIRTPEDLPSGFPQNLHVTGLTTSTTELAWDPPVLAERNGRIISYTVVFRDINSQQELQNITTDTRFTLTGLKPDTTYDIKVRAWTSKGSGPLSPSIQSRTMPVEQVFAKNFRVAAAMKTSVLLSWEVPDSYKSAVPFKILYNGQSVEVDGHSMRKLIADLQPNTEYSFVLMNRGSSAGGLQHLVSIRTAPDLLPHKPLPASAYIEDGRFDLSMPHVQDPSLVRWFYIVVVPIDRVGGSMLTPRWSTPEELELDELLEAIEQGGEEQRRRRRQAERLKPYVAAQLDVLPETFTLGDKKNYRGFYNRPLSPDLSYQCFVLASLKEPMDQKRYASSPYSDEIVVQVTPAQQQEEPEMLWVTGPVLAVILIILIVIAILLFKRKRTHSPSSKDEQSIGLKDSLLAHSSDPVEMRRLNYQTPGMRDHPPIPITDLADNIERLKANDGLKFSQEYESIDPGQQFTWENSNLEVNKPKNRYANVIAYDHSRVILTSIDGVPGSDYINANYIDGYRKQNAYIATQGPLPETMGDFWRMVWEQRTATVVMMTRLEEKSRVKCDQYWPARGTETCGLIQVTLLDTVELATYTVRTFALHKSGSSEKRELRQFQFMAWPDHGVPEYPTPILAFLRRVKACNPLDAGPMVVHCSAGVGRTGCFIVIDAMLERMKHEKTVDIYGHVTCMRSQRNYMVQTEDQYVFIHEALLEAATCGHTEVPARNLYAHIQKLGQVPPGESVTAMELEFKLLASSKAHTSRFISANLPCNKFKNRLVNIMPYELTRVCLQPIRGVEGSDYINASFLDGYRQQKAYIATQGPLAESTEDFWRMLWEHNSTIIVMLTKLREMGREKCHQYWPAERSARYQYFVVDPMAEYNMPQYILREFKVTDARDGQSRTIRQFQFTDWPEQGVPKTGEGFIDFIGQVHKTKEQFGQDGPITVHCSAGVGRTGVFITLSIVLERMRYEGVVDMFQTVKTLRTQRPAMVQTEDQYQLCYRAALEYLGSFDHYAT
In assay [4] the target is Tyrosine-protein phosphatase non-receptor type 6 (Homo sapiens) (UniProt P29350). Briefly: Inhibition of GST-tagged PTP SHP1 at 100 ug/mL.
Sequence of Tyrosine-protein phosphatase non-receptor type 6 (Homo sapiens) (P29350 whole entry): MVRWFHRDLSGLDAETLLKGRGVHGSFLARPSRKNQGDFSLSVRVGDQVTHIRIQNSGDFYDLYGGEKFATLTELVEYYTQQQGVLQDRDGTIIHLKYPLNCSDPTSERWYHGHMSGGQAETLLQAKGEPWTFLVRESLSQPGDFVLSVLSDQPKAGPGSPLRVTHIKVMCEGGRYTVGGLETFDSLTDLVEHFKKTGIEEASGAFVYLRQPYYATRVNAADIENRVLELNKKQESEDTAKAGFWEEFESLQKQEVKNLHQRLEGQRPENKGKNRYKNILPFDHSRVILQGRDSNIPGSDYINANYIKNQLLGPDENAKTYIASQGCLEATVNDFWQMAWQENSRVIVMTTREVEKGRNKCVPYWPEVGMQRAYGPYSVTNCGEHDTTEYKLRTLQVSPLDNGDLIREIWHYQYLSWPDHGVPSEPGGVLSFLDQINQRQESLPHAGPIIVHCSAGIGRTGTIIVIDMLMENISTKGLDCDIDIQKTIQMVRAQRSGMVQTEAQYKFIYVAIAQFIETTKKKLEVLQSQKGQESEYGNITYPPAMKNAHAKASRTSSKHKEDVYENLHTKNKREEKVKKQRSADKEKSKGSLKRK
The target of assay [5] is T3, Dual specificity protein phosphatase 22 (Homo sapiens) (UniProt Q9NRW4).
T3 sequence (whole entry): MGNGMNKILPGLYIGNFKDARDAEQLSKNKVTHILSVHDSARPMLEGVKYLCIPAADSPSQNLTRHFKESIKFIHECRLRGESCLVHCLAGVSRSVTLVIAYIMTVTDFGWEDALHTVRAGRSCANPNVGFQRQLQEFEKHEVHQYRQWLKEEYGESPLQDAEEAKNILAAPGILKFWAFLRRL
Briefly: Inhibition of GST-tagged PTP MKPX at 100 ug/mL.

The term IC50 denotes the concentration at which inhibition is half-maximal.

Activity calls are given as the source filed them. The rule behind the calls is not given here.

Molecule `C=C(C)[C@H]1C2=CC(C(=O)OC)=C(C[C@H](C(=C)C)[C@@H](O)C(OC(=O)CCCCCCCCCCCCCCC)C3=C[C@H]1OC3=O)O2` (single isomer, unassigned) [LIPIDYL PSEUDOPTERANE A] gave a concentration for half-maximal inhibition (IC50) in assay [1] of 113 µM. The outcome in assay [2] was Active. For the same molecule, the result in assay [3], in assay [4] and in assay [5] was inactive.

Regarding `C=C(C)[C@H]1CC2=C(C(=O)OC)C=C(O2)[C@H](C(=C)C)[C@H]2C=C(C(=O)O2)C(OC(=O)CCCCCCCCCCCCCCC)C1` (some centres undefined), the outcome in assay [2] was Active. Further, the outcome in assay [3], in assay [4] and in assay [5] was inactive.

The values are drawn from ChEMBL document CHEMBL1151767, “Lipidyl pseudopteranes A-F: isolation, biomimetic synthesis, and PTP1B inhibitory activity of a new class of pseudopteranoids from the Gorgonian Pseudopterogorgia acerosa” (J Nat Prod, 2008).
